According to patent publication EP4104902B1, “COMPOUNDS AND M[…] SAME” (priority 2020, dated 2021):
Where two headings read alike, the source gives them in different places.

Tested on: recombinant rabies virus 1088 strain expressing Gaussia Luciferase (GLuc) (1088/GLuc)
Type: cell-based

| SMILES | IC50 (read-out: Anti-rabies activity) [µM] | IC50 (read-out: IC50) [µM] |
| --- | --- | --- |
| CC(C)CC1C2CNC3(C(=O)NCc4ccc(Cl)cc4)C(C2)CN(CC(C)C)C13 (stereo not shown) [IB-871] | 10 to 30 | – |
| O=C(NCc1ccccc1)[C@@]12C[C@@H]3CN(CCc4ccccc4)[C@@H]([C@@H]3CN1)[C@H]2Cc1ccc(O)cc1 (relative stereo) [IF-640] | 10 to 30 | – |
| O=C(NCc1ccc(F)cc1)[C@]12NC[C@@H]3C[C@H]1CN(CCc1ccccc1)[C@H]2[C@@H]3Cc1ccc(O)cc1 (relative stereo) [IB-642] | < 5 | – |
| O=C(NCc1cccc2ccccc12)[C@]12NC[C@@H]3C[C@H]1CN(CCO)[C@H]2[C@@H]3Cc1ccc(O)cc1 (relative stereo) [IB-527] | 10 to 30 | – |
| CC(C)CNC(=O)[C@]12NC[C@@H]3C[C@H]1CN(Cc1ccccc1)[C@H]2[C@@H]3CC(C)C (relative stereo) [IB-4] | 10 to 30 | 19.2 |
| CC(C)CCN1CC2CC3CNC2(C(=O)NCc2ccc(F)cc2)C1C3CCC(=O)O (stereo not shown) [IB-386] | 10 to 30 | – |
| CC(C)CC[C@@H]1[C@@H]2CN[C@@]3(C(=O)NCCc4ccccc4)[C@@H](C2)CN(CCO)[C@@H]13 (relative stereo) [IB-531] | 10 to 30 | – |
| O=C(O)CCC1C2CNC3(C(=O)NCc4cccc5ccccc45)C(C2)CN(Cc2ccc(F)cc2)C13 (stereo not shown) [IB-390] | 10 to 30 | – |
| O=C(NCCO)[C@]12NC[C@@H]3C[C@H]1CN(CCc1ccccc1)[C@H]2[C@@H]3Cc1ccccc1 (relative stereo) [IB-640] | < 5 | – |
| CC(C)C[C@@H]1[C@@H]2CN[C@@]3(C(=O)NCc4cccc5ccccc45)[C@@H](C2)CN(CCCNC(=N)N)[C@@H]13 (relative stereo) [IB-164, (3S*, 3aS*, 6R*, 7R*, 7aS*)-1-(3-guanidinopropyl)-7-isobutyl-N-(naphthalen-1-ylmethyl)octahydro-3aH-3,6-methanopyrrolo[3,2-b]pyridine-3a-carboxamide] | < 5 | – |
| Cc1ccc(CN2CC3CC4CN(CC(C)C)C3(C(=O)NCc3ccccc3)C2C4CC(C)C)cc1 (stereo not shown) [IB-881] | < 5 | – |
| N=C(N)NCCCNC(=O)[C@]12NC[C@@H]3C[C@H]1CN(Cc1ccccc1)[C@H]2[C@@H]3CCc1ccccc1 (relative stereo) [IB-279] | 10 to 30 | – |
| CC(C)C[C@@H]1[C@@H]2CN[C@@]3(C(=O)NCc4cccc5ccccc45)[C@@H](C2)CN(CC(N)=O)[C@@H]13 (relative stereo) [IB-81] | 10 to 30 | – |
| CC(C)CN1C[C@H]2C[C@]3(C(=O)NCc4ccc(F)cc4)NC[C@H]2[C@H]1[C@H]3CCc1ccccc1 (relative stereo) [IF-525] | 10 to 30 | – |
| CCCCCCNC(=O)[C@@]12C[C@@H]3CN(Cc4ccccc4)[C@@H]([C@@H]3CN1)[C@H]2CCCNC(=N)N (relative stereo) [IF-285] | 10 to 30 | – |
| CC(C)CCNC(=O)[C@@]12C[C@@H]3CN(CCO)[C@@H]([C@@H]3CN1)[C@H]2Cc1cccc2ccccc12 (relative stereo) [IF-660] | 10 to 30 | – |
| N=C(N)NCCC[C@@H]1[C@@H]2CN[C@@]3(C(=O)NCc4ccccc4)[C@@H](C2)CN(Cc2ccc(F)cc2)[C@@H]13 (relative stereo) [IB-260] | 10 to 30 | – |
| CC(C)C[C@@H]1[C@@H]2CN[C@@]3(C(=O)NCc4cccc5ccccc45)[C@@H](C2)CN(CCO)[C@@H]13 (relative stereo) [IB-585] | 10 to 30 | – |
| CC(C)CCN1C[C@@H]2C[C@H]3CN[C@]2(C(=O)NCCC(N)=O)[C@@H]1[C@@H]3Cc1cccc2ccccc12 (relative stereo) [IB-703] | < 5 | – |
| CC(C)CC1C2CNC3(C(=O)NCCC(N)=O)C(C2)CN(CCc2ccccc2)C13 (stereo not shown) [IB-708] | < 5 | – |
| N=C(N)NCCCNC(=O)[C@]12NC[C@@H]3C[C@H]1CN(Cc1ccccc1)[C@H]2[C@@H]3Cc1ccccc1 (relative stereo) [IB-276] | 10 to 30 | – |

| SMILES | IC50 (read-out: Anti-rabies activity) [µM] | IC50 (read-out: IC50) [µM] |
| --- | --- | --- |
| O=C(NCc1ccccc1)[C@@]12C[C@@H]3CN(CC4CCCCC4)[C@@H]([C@@H]3CN1)[C@H]2Cc1ccc(O)cc1 (relative stereo) [IF-645] | 10 to 30 | – |
| O=C(NCc1ccccc1)[C@]12NC[C@@H]3C[C@H]1CN(Cc1ccccc1)[C@H]2[C@@H]3Cc1cccc2ccccc12 (relative stereo) [IB-777] | < 5 | – |
| N=C(N)NCCC[C@@H]1[C@@H]2[C@@H]3CN[C@@]1(C(=O)NCc1cccc4ccccc14)C[C@@H]3CN2Cc1ccccc1 (relative stereo) [IF-284] | 10 to 30 | – |
| CC(C)CC[C@@H]1[C@@H]2CN[C@@]3(C(=O)NCCC(=O)O)[C@@H](C2)CN(CC2CCCCC2)[C@@H]13 (relative stereo) [IB-613] | 10 to 30 | – |
| CCCCCCNC(=O)[C@@]12C[C@@H]3CN(CCC(C)C)[C@@H]([C@@H]3CN1)[C@H]2Cc1ccc(O)cc1 (relative stereo) [IF-583] | < 5 | – |
| CC(C)CC1C2C=NC3(C(=O)NCc4ccccc4)C(C2)CN(Cc2ccc(Cl)cc2)C13 (stereo not shown) [IIB-83] | < 5 | – |
| CC(C)CN1C[C@H]2C[C@]3(C(=O)NCc4ccccc4)NC[C@H]2[C@H]1[C@H]3Cc1cccc2ccccc12 (relative stereo) [IF-753] | 10 to 30 | – |
| COc1ccc(CN2CC3CC4C=NC3(C(=O)NCc3ccccc3)C2C4CC(C)C)cc1 (stereo not shown) [IIB-85] | 5 to 10 | – |
| O=C(NCCO)[C@@]12C[C@@H]3CN(Cc4cccc5ccccc45)[C@@H]([C@@H]3CN1)[C@H]2Cc1ccccc1 (relative stereo) [IF-603] | 10 to 30 | – |
| CC(C)CNC(=O)[C@@]12C[C@@H]3CN(Cc4cccc5ccccc45)[C@@H]([C@@H]3CN1)[C@H]2CC(C)C (relative stereo) [IF-739] | < 5 | – |
| NC(=O)C[C@@H]1[C@@H]2[C@@H]3CN[C@@]1(C(=O)NCc1ccccc1)C[C@@H]3CN2CC1CCCCC1 (relative stereo) [IF-246] | 10 to 30 | – |
| N=C(N)NCCC[C@@H]1[C@@H]2[C@@H]3CN[C@@]1(C(=O)NCc1cccc4ccccc14)C[C@@H]3CN2Cc1ccc(F)cc1 (relative stereo) [IF-297] | 10 to 30 | – |
| O=C(NCc1cccc2ccccc12)[C@@]12C[C@@H]3CN(CCO)[C@@H]([C@@H]3CN1)[C@H]2Cc1ccccc1 (relative stereo) [IF-758] | < 5 | – |
| O=C(NCc1ccccc1)[C@]12NC[C@@H]3C[C@H]1CN(Cc1ccc(F)cc1)[C@H]2[C@@H]3Cc1ccccc1 (relative stereo) [IB-772] | < 5 | – |
| CC(C)CNC(=O)[C@@]12C[C@@H]3CN(Cc4ccc(F)cc4)[C@@H]([C@@H]3CN1)[C@H]2Cc1ccccc1 (relative stereo) [IF-653] | 10 to 30 | – |
| CC(C)C[C@@H]1[C@@H]2[C@@H]3CN[C@@]1(C(=O)NCc1ccc(O)cc1)C[C@@H]3CN2Cc1ccc(F)cc1 (relative stereo) [IF-482] | 10 to 30 | – |
| CC(C)CCNC(=O)[C@@]12C[C@@H]3CN(CC4CCCCC4)[C@@H]([C@@H]3CN1)[C@H]2CC(C)C (relative stereo) [IF-659] | 10 to 30 | – |
| CC(C)CCNC(=O)C12NCC3CC1CN(Cc1ccc(O)cc1)C2C3CC(C)C (stereo not shown) [IB-739] | 10 to 30 | – |
| O=C(NCc1ccc(O)cc1)[C@@]12C[C@@H]3CN(Cc4ccccc4)[C@@H]([C@@H]3CN1)[C@H]2CCc1ccccc1 (relative stereo) [IF-565] | < 5 | – |
| O=C(NCc1ccc(O)cc1)[C@@]12C[C@@H]3CN(Cc4cccc5ccccc45)[C@@H]([C@@H]3CN1)[C@H]2Cc1ccccc1 (relative stereo) [IF-472] | < 5 | – |
| O=C(NCCO)[C@@]12C[C@@H]3CN(Cc4cccc5ccccc45)[C@@H]([C@@H]3CN1)[C@H]2Cc1cccc2ccccc12 (relative stereo) [IF-614] | 10 to 30 | – |
